Reference: PubChem BioAssay (NCI)
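Cells were grown in 96-well plates and exposed to each compound for 48 hours at five concentrations; endpoints were interpolated linearly between bracketing concentrations, or set to the highest concentration if not reached. The concentration for full growth arrest is given as TGI.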

Columns and labels:
Assay in all cases: growth of human tumour cells (NCI), 48 h
786-0 renal = system: 786-0 renal
A498 renal = system: A498 renal
A549 NSCLC = system: A549 NSCLC
ACHN renal = system: ACHN renal
BT-549 breast = system: BT-549 breast
CAKI-1 renal = system: CAKI-1 renal
CCRF-CEM leukemia = system: CCRF-CEM leukemia
COLO 205 colon = system: COLO 205 colon
DU-145 prostate = system: DU-145 prostate
EKVX NSCLC = system: EKVX NSCLC
HCC-2998 colon = system: HCC-2998 colon
HCT-116 colon = system: HCT-116 colon
HCT-15 colon = system: HCT-15 colon
HOP-62 NSCLC = system: HOP-62 NSCLC
HOP-92 NSCLC = system: HOP-92 NSCLC
K-562 leukemia = system: K-562 leukemia
KM12 colon = system: KM12 colon
M14 melanoma = system: M14 melanoma
MALME-3M melanoma = system: MALME-3M melanoma
MCF7 breast = system: MCF7 breast
MDA-MB-231 breast = system: MDA-MB-231 breast
MDA-MB-435 = system: MDA-MB-435
MDA-N = system: MDA-N
MOLT-4 leukemia = system: MOLT-4 leukemia
NCI-H226 lung = system: NCI-H226 lung
NCI-H23 lung = system: NCI-H23 lung
NCI-H460 lung = system: NCI-H460 lung
NCI-H522 lung = system: NCI-H522 lung
NCI/ADR-RES ovarian = system: NCI/ADR-RES ovarian
OVCAR-3 ovarian = system: OVCAR-3 ovarian
OVCAR-4 ovarian = system: OVCAR-4 ovarian
OVCAR-5 ovarian = system: OVCAR-5 ovarian
OVCAR-8 ovarian = system: OVCAR-8 ovarian
PC-3 prostate = system: PC-3 prostate
RPMI-8226 leukemia = system: RPMI-8226 leukemia
RXF 393 renal = system: RXF 393 renal
SF-268 CNS = system: SF-268 CNS
SF-295 CNS = system: SF-295 CNS
SF-539 CNS = system: SF-539 CNS
SK-MEL-28 melanoma = system: SK-MEL-28 melanoma
SK-OV-3 ovarian = system: SK-OV-3 ovarian
SN12C renal = system: SN12C renal
SNB-19 CNS = system: SNB-19 CNS
SNB-75 CNS = system: SNB-75 CNS
SR leukemia = system: SR leukemia
SW-620 colon = system: SW-620 colon
T-47D breast = system: T-47D breast
U251 CNS = system: U251 CNS
UACC-257 melanoma = system: UACC-257 melanoma
UACC-62 melanoma = system: UACC-62 melanoma
UO-31 renal = system: UO-31 renal
HS 578T breast = system: HS 578T breast
HT29 colon = system: HT29 colon
IGROV1 ovarian = system: IGROV1 ovarian
LOX IMVI melanoma = system: LOX IMVI melanoma
SK-MEL-2 melanoma = system: SK-MEL-2 melanoma
SK-MEL-5 melanoma = system: SK-MEL-5 melanoma
TK-10 renal = system: TK-10 renal

Measured: TGI

Cc1ccc(Nc2sc(C)cc2C#N)c([N+](=O)[O-])c1
> 100 µM: 786-0 renal | A498 renal | A549 NSCLC | ACHN renal | BT-549 breast | CAKI-1 renal | CCRF-CEM leukemia | COLO 205 colon | DU-145 prostate | EKVX NSCLC | HCC-2998 colon | HCT-116 colon | HCT-15 colon | HOP-62 NSCLC | HOP-92 NSCLC | K-562 leukemia | KM12 colon | M14 melanoma | MALME-3M melanoma | MCF7 breast | MDA-MB-231 breast | MDA-MB-435 | MDA-N | MOLT-4 leukemia | NCI-H226 lung | NCI-H23 lung | NCI-H460 lung | NCI-H522 lung | NCI/ADR-RES ovarian | OVCAR-3 ovarian | OVCAR-4 ovarian | OVCAR-5 ovarian | OVCAR-8 ovarian | PC-3 prostate | RPMI-8226 leukemia | RXF 393 renal | SF-268 CNS | SF-295 CNS | SF-539 CNS | SK-MEL-28 melanoma | SK-OV-3 ovarian | SN12C renal | SNB-19 CNS | SNB-75 CNS | SR leukemia | SW-620 colon | T-47D breast | U251 CNS | UACC-257 melanoma | UACC-62 melanoma | UO-31 renal

O=S(=O)(O)c1ccc2c(N=Nc3ccccc3Cl)c(O)ccc2c1
> 100 µM: 786-0 renal | A498 renal | A549 NSCLC | ACHN renal | BT-549 breast | CAKI-1 renal | CCRF-CEM leukemia | COLO 205 colon | DU-145 prostate | EKVX NSCLC | HCT-116 colon | HCT-15 colon | HOP-62 NSCLC | HOP-92 NSCLC | HS 578T breast | HT29 colon | IGROV1 ovarian | K-562 leukemia | KM12 colon | LOX IMVI melanoma | M14 melanoma | MALME-3M melanoma | MDA-MB-231 breast | MDA-MB-435 | MDA-N | MOLT-4 leukemia | NCI-H23 lung | NCI-H522 lung | NCI/ADR-RES ovarian | OVCAR-3 ovarian | OVCAR-4 ovarian | OVCAR-5 ovarian | OVCAR-8 ovarian | PC-3 prostate | RPMI-8226 leukemia | RXF 393 renal | SF-268 CNS | SF-295 CNS | SK-MEL-2 melanoma | SK-MEL-28 melanoma | SK-MEL-5 melanoma | SK-OV-3 ovarian | SN12C renal | SNB-19 CNS | SNB-75 CNS | SR leukemia | SW-620 colon | T-47D breast | TK-10 renal | U251 CNS | UACC-257 melanoma | UACC-62 melanoma | UO-31 renal
